Laboratory results taken from patent publication US20170105967A1, “COMPOSITIONS AND METHODS OF TREATMENT OF INFLAMMATORY SKIN CONDITIONS USING ALLANTOIN” (Scioderm, Inc., priority 2010, published 2017).

What was measured:
[1] = percutaneous absorption through dermis only human cadaver skin; type: in vitro ADME; conditions: isolated dermis
Description: The formulations A.S. 1-139E, A.S. 1-81B, A.S. 1-135C, A.S. 1-135G, and A.S. 1-81 G were tested on a minimum of triplicate sections from three different cadaver skin donors and three different porcine skin donors for the percutaneous absorption of allantoin over a 48-hour dose period. The intent of this study was to mimic the absorption of allantoin directly into the capillary bed, while the dermis only study attempted to mimic the loss of skin barrier function due to broken skin or blisters. In addition, each formulation was tested in at least triplicate membrane chambers. At preselected times after dosing, the dermal receptor solution was removed in its entirety, replaced with fresh receptor solution, and an aliquot saved for subsequent analysis. The samples were analyzed for the allantoin using high performance liquid chromatography with UV and MS detection (HPLC-UV-MS). The bottom table of FIG. 3 lists a remanufacture of the 9% allantoin cream (A.S. 1-153H) to achieve a better viscosity of the final product.

[2] = test system: psoriatic scales; conditions: in vitro incubation with allantoin solution; cited from earlier work
[3] = in vitro; reactive sulphydryl groups released; cited from earlier work
[4] = test system: calluses and other forms of hyperkeratization; conditions: lower concentrations; cited from earlier work
[5] = sodium lauryl sulfate and beeswax emulsion, pH 6.8 to 7.5; with time and accelerated tests at 40° C.; cited from earlier work

## NC(=O)NC1NC(=O)NC1=O (centres unmarked) [allantoin]
[1]
  penetration of allantoin when the skin's barrier has been damaged or removed: increases significantly
[2]
  concentration showing keratolytic activity on psoriatic scales: ≥ 0.2%
[3]
  protein dispersing activity: confirm the protein dispersing activity
[4]
  concentration loosening the desmosomes (protein bridges): < 1%
[5]
  stability of allantoin: degrades significantly
